Columns and labels:
Format in all cases: cell-based
[1] = target: T1, Protein-cysteine N-palmitoyltransferase HHAT (Homo sapiens, UniProt Q5VTY9); assay: Inhibition of HA/FLAG/His-tagged HHAT (unknown origin) expressed in 293FT cells assessed as enzyme-mediated sonic hedgehog palmitoylation incubated for 20 mins followed by [125I]iodo-palmitoyl CoA and Shh biotinylated peptide and measured after 1 hr by Scintillation proximity assay
[2] = target: T1, Protein-cysteine N-palmitoyltransferase HHAT; assay: Inhibition of 3C-FLAG/His8-tagged human HHAT expressed in HEK293 cells assessed as reduction in enzyme-mediated sonic hedgehog (1 to 11 residues) palmitoylation by click-ELISA method
[3] = target: Zinc finger protein GLI1/GLI2 (Mus musculus, UniProt P47806+Q0VGT2); assay: Inhibition of GLI1/GLI2 in mouse Shh Light2 cells assessed as reduction in endogenous hedgehog signalling in presence of Smo agonist SAG by luciferase reporter gene assay
[4] = Inhibition of mouse Smo A1 mutant expressed in mouse Shh Light2 cells assessed as reduction in hedgehog pathway activation incubated for 30 hrs by luminescence assay
[5] = target: Sonic hedgehog protein (Mus musculus, UniProt Q62226); assay: Inhibition of sonic hedgehog signaling in mouse Shh Light2 cells after […] by Bright-Glo luciferase assay
Sonic hedgehog protein, sequence (Q62226 25-198 limits assumed): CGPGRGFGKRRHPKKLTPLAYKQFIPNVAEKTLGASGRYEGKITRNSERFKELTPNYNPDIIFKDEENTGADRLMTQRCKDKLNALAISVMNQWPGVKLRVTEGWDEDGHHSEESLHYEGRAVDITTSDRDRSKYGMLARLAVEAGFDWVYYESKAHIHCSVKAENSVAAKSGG

T1 sequence (Q5VTY9 whole entry, the tested form may be a part): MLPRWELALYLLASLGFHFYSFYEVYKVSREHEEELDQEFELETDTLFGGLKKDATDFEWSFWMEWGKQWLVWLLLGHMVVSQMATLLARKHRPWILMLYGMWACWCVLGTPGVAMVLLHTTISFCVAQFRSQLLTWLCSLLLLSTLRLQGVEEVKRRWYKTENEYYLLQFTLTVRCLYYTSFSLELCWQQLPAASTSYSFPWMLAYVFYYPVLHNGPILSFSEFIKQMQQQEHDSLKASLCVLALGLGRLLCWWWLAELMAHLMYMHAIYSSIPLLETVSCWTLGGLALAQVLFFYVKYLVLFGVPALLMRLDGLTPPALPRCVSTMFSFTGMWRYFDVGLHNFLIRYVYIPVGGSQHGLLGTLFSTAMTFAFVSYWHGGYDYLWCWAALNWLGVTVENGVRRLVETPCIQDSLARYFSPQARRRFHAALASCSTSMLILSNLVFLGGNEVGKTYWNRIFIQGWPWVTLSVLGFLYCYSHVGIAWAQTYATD

CCC(C)CNCC(=O)N1CCc2sccc2C1COc1cccc(C)c1 (stereo unspecified)
IC50 [1]: 0.85 µM

CCC(C)CNCC(=O)N1CCc2sccc2C1c1cccc(C)n1 (stereo unspecified)
IC50 [2]: 0.2 µM

CN(C)c1ccccc1CN1CCCN(Cc2ccccc2N(C)C)C1c1ccncc1
IC50 [3]: 5 µM

c1cc(-c2sc(-c3ccncc3)c(-c3ccncc3)c2-c2ccncc2)ccn1
IC50 [3]: 5 µM

CCC(C)n1ncn(-c2ccc(N3CCN(c4ccc(OCC5COC(Cn6cncn6)(c6ccc(Cl)cc6Cl)O5)cc4)CC3)cc2)c1=O (stereo unspecified) [ITRACONAZOLE]
IC50 [4]: 0.8 µM

O=C(C[C@@H]1C/C=C/CCC(=O)O[C@H](c2ccccc2)CNC1=O)NCc1ccc(Cl)cc1 [ROBOTNIKININ]
IC50 [5]: 4 µM

— ChEMBL document CHEMBL4321784, “Inhibiting Hedgehog: An Update on Pharmacological Compounds and Targeting Strategies” (J Med Chem, 2019)
